Molecules are shown by their SMILES. Read-outs that look alike come from different tables or passages of the source. Bridge positions count the residues as written; N and C are the ends. Square brackets hold non-standard residues; d marks the D form. Peptide text beside a SMILES is read from it. S5 = C=CCCC[C@](C)(N)C(=O)O

Data set [1] can be described thus: Proteolytic stability in human plasma. As to conditions: pooled human plasma, pH 7.4, 2 μM, 37°C, time points 0, 10, 30, 60, 120 min, LC-MS/MS, duplicate.
The subject of data set [2] is pseudovirus NL4-3.Luc.R-E-/VSV-G. The note with it: 48 h.
Data set [3] concerns pseudovirus NL4-3ΔEnv-NanoLuc/SARS-CoV-2. The note with it: 24 h.
For data set [4] the following is noted: reported for the control stapled peptide; cited from earlier work.
Data set [5] has as its system pseudovirus NL4-3.Luc.R-E-/VSV-G. As to conditions: 24 h.
In data set [6] the test system is pseudovirus NL4-3ΔEnv-NanoLuc/SARS-CoV-2. As to conditions: 48 h.
The test system of data set [7] is SARS-CoV-2 (US_WA-1/2020). It counts as cell-based.
Data set [8] is described as follows: α-Helical propensity by CD spectroscopy. Type of data set: physicochemical. The note with it: 0.125 mg/ml peptide in 10 mM PBS, 25°C, 185 to 260 nm, calculated with CDNN software.

Regarding `CC(C)[N+](C)(CCOC(=O)C1c2ccccc2Oc2ccccc21)C(C)C` [Propantheline bromide, propantheline bromide], the “half-life (T1/2) in human plasma” value in data set [1] is 8 min.

As to `CC(=O)N[C@@H](CC(=O)O)C(=O)N[C@@H](CC(N)=O)C(=O)N[C@@H](CCC(=O)O)C(=O)N[C@@]1(C)CCC/C=C\CCC[C@@](C)(C(=O)N[C@@H](Cc2ccc(O)cc2)C(=O)N[C@@H](Cc2c[nH]cn2)C(=O)N[C@@H](CC(C)C)C(=O)N[C@@]2(C)CCC/C=C\CCC[C@@](C)(C(=O)N[C@H](C(N)=O)C(C)C)NC(=O)[C@H](CC(N)=O)NC(=O)[C@H](Cc3ccccc3)NC(=O)[C@H](Cc3ccccc3)NC2=O)NC(=O)[C@H](Cc2ccccc2)NC(=O)[C@H](Cc2c[nH]c3ccccc23)NC(=O)[C@H](CCC(N)=O)NC1=O` [StRIP16] (Ac-DNE[S5]QWF[S5]YHL[S5]FFN[S5]V-NH2; staple (Z) 4-8, 12-16), the IC50 in data set [2], in data set [3], in data set [5] and in data set [6] was over 43.5 µM throughout. Moreover, the “% helicity” value in data set [4] was 38%.

As for `CC[C@H](C)[C@H](NC(=O)[C@@H](NC(C)=O)[C@@H](C)O)C(=O)N[C@@H](CCC(=O)O)C(=O)N[C@@H](CCC(=O)O)C(=O)N[C@@H](CCC(N)=O)C(=O)N[C@@H](C)C(=O)N[C@@H](CCCCN)C(=O)N[C@H](C(=O)N[C@@]1(C)CCC/C=C\CCC[C@@](C)(C(=O)N[C@@H](CC(N)=O)C(=O)N[C@@H](Cc2c[nH]cn2)C(=O)N[C@@H](CCC(=O)O)C(=O)N[C@@H](C)C(=O)N[C@@H](CCC(=O)O)C(=O)N[C@@H](CC(=O)O)C(=O)N[C@@H](CC(C)C)C(=O)N[C@@H](Cc2ccccc2)C(=O)N[C@@H](Cc2ccc(O)cc2)C(=O)N[C@@H](CCC(N)=O)C(=O)N[C@@]2(C)CCC/C=C\CCC[C@@](C)(C(=O)N[C@@H](Cc3c[nH]c4ccccc34)C(=O)N[C@@H](CC(N)=O)C(N)=O)NC(=O)[C@H](C)NC(=O)[C@H](CC(C)C)NC(=O)[C@H](CO)NC2=O)NC(=O)[C@H](CCCCN)NC(=O)[C@H](CC(=O)O)NC(=O)[C@H](CC(C)C)NC1=O)[C@@H](C)O` [NYBSP-1] (Ac-TIEEQAKT[S5]LDK[S5]NHEAEDLFYQ[S5]SLA[S5]WN-NH2; staple (Z) 9-13, 24-28), the IC50 in data set [2] is over 27.5 µM; in data set [3], 4.1 ± 0.26 µM; in data set [5], over 27.5 µM; in data set [6] it was 2.2 ± 0.14 µM. Besides, the IC100 in data set [7] stood at 17.2 µM. For the same molecule, the “% α-Helicity (185-260 nm)” value in data set [8] was 94%.

What is called IC50 is the concentration at which inhibition is half-maximal.

The record behind these values is publication PMC7751257 (mBio, 2020).
